# According to article PMC8154566, “Scaffold-Hopping Strategy on a Series of Proteasome Inhibitors Led to a Preclinical Candidate for the Treatment of Visceral Leishmaniasis” (Journal of Medicinal Chemistry, 2021):
# Like-named read-outs stand apart in the source and are kept apart here.
# Assays:
# L. donovani amastigotes = experiment: INMAC assay: intramacrophage L. donovani in differentiated THP-1 cells; assay type: cell-based, Leishmania donovani; conditions: for IC50 / EC50: Leishmania donovani; for IC50: THP-1, read-out: LdInMac pIC50 (converted)
# Protocol: (§1) Intramacrophage L. donovani Assay. This assay was conducted as previously described, except for […]
# THP-1 cells = experiment: THP-1 host cell read-out of the INMAC assay; assay type: cell-based; conditions: for IC50 / EC50: Homo sapiens
# Protocol: as §1
# [1] = FaSSIF (fasted state simulated intestinal fluid) solubility; assay type: physicochemical
# Protocol: (§2) Intramacrophage L. donovani Assay. This assay was conducted as previously described, except for compound exposure time, which was 96 h instead of 72 h.4
# (§3) Intrinsic Clearance. This assay was conducted as previously described.5 Aqueous Solubility. This assay was conducted as previously described.6
# (§4) FaSSIF Solublity. This assay was conducted as previously described.5,7
# (§5) In vivo Mouse Efficacy Studies. In vivo studies were carried out as previously described, with minor modifications.7 Briefly: Control drug used was Miltefosine (30 mg/kg orally, twice daily for 5 days), vehicle used was 10% (v/v) dimethyl sulfoxide (DMSO), 40% polyethylene glycol 400, and 50% deionized water (10 Ml/kg orally, twice daily for 5 days) and mice were treated with test compound intraperitoneally (50 mg/kg twice daily for 5 days). 5
# (§6) All regulated procedures on living animals were carried out under the authority of a project license issued by the Home Office under the Animals (Scientific Procedures) Act 1986, as amended in 2012 (and in compliance with EU Directive EU/2010/63). Infected animals had access to food and water ad libitum and were housed under a 12 hour light/dark photoperiod. Animals used in these experiments were female NMRI and Balb/c mice (Harlan, UK).
# (§7) Test compound DDD01008714 was dosed orally (P.O.) at 10 mg free base/kg (dose volume 10 mL/kg; dose vehicle: 10% (vol/vol) dimethyl sulfoxide (DMSO), 40% polyethylene glycol 400 (PEG400) and 50% deionized water) to female NMRI mice (n = 3) or intravenously (I.V.) at 3 mg free base/kg (dose volume 5 mL/kg; dose vehicle: 10% (vol/vol) dimethyl sulfoxide (DMSO) and 90% Saline) to female Balb/c mice (n = 3). Blood samples (10 μL) where taken from the tail vein of […]
# [2] = Mouse liver microsomal intrinsic clearance; assay type: in vitro ADME; conditions: for Mouse CLi: mouse liver microsomes; for Cli (mouse, ml/min/g): supplementary csv
# Protocol: as §2, §3, §4, §5, §6, §7
# [3] = Kinetic aqueous solubility by CLND; assay type: physicochemical
# Protocol: We had successfully used these criteria in the hit to lead stage to identify compounds for in vivo proof-of-concept studies in another program, which subsequently led to the identification of preclinical candidate DDD853651/GSK3186899 active against CRK12.[7] […] A pharmacokinetic (PK) study was thus performed, dosed at 10 mg/kg po and 3 mg/kg iv. […] With the limited knowledge of the PK/PD drivers for the treatment of VL, we considered this to be a suitable profile for the progression of 4 into a previously reported mouse efficacy model of VL,[6],[7],[17],[18] where it was dosed twice daily at 50 mg/kg ip in order to further maximize exposure and give the best chance of achieving proof-of-concept.
# as §2, §3, §4, §5, §6, §7
# [4] = Table 5, at least three replicates, SD ≤0.4
# [5] = THP-1, Table 5, at least three replicates, SD ≤0.4, read-out: INMAC pEC50 (converted)
# [6] = THP-1, Table 5, read-out: THP-1 pEC50 (converted)
# [7] = Table 5, kinetic, CLND, read-out: Aq. solubility
# [8] = THP-1, supplementary csv, read-out: THP1 pIC50 (converted)
Compound,INMAC pEC50 (L. donovani amastigotes; [4]),Mouse CLi ([2]; Table 5),"Cli (mouse, ml/min/g) [2]",IC50 (L. donovani amastigotes),EC50 (L. donovani amastigotes; [5]),EC50 (THP-1 cells; [6]),IC50 (THP-1 cells; [8]),also measured
"N-(3-(7-Phenylimidazo[1,2-b][1,2,4]triazin-3-yl)phenyl)pyrrolidine-1-carboxamide [Compound 27]",5.9,3.3 mL/min/g,3.3 mL/min/g,,,,,LdInMac pIC50 (L. donovani amastigotes; supplementary csv): 5.9; THP-1 pEC50 (THP-1 cells; Table 5): <4.3; THP1 pIC50 (THP-1 cells; supplementary csv): <4.3; solubility ([1]; Table 5): 3.0 µM
"O=C(Nc1ccc(F)c(-c2cc3nc(N4CCOCC4)cnc3[nH]2)c1)N1CCCC1 [Compound 18, N-(4-Fluoro-3-(2-morpholino-5H-pyrrolo[2,3-b]pyrazin-6-yl)phenyl)pyrrolidine-1-carboxamide]",inactive,10 mL/min/g,,> 50.1 µM,> 50.1 µM,> 50.1 µM,,"IC50 (THP-1 cells; THP-1, read-out: THP1 pIC50 (converted)): > 50.1 µM; solubility [3, 7]: 135 µM; solubility ([3]; supplementary csv, read-out: Aqueous Solubility): 10 µM"
"O=C(Nc1cccc(-c2cn3cc(N4CCOCC4)cnc3n2)c1)N1CCCC1 [Compound 6, N-(3-(6-Morpholinoimidazo[1,2-a]pyrimidin-2-yl)phenyl)pyrrolidine-1-carboxamide]",,,0.8 mL/min/g,,,,> 50.1 µM,"loss of potency (L. donovani amastigotes; INMAC, relative to compound 4): > 10 fold; EC50 (L. donovani amastigotes; THP-1, Table 2, at least three replicates, SD ≤0.4, read-out: INMAC (pEC50) (converted)): 12.6 µM; EC50 (THP-1 cells; THP-1, Table 2, read-out: THP-1 (pEC50) (converted)): > 50.1 µM; Mouse CLi ([2]; Table 2): 0.8 mL/min/g"
"O=C(Nc1cccc(-c2cc3ncc(-c4ccccc4)cn3n2)c1)N1CCCC1 [Compound 16, N-(3-(6-Phenylpyrazolo[1,5-a]pyrimidin-2-yl)phenyl)pyrrolidine-1-carboxamide]",inactive,3.6 mL/min/g,3.6 mL/min/g,> 50.1 µM,> 50.1 µM,> 50.1 µM,> 50.1 µM,
O=C(Nc1cccc(-c2nc3ccccc3o2)c1)c1ccco1 [Compound 14],,,50 mL/min/g,> 50.1 µM,,,> 50.1 µM,"EC50 (L. donovani amastigotes; THP-1, Table 3, at least three replicates, SD ≤0.4, read-out: INMAC (pEC50) (converted)): > 50.1 µM; INMAC pEC50 (L. donovani amastigotes; Table 3, at least three replicates, SD ≤0.4): no activity; EC50 (THP-1 cells; THP-1, Table 3, read-out: THP-1 (pEC50) (converted)): > 50.1 µM; Mouse CLi ([2]; Table 3): 50 mL/min/g"
"Cn1c(-c2cc(NC(=O)N3CCCC3)ccc2F)cc2cc(N3CCOCC3)cnc21 [Compound 19, N-[4-Fluoro-3-(1-methyl-5-morpholino-pyrrolo[2,3-b]pyridin-2-yl)phenyl]pyrrolidine-1-carboxamide]",inactive,2.4 mL/min/g,2.4 mL/min/g,> 50.1 µM,> 50.1 µM,> 50.1 µM,> 50.1 µM,
"O=C1CN(c2cnc3nc(-c4cc(NC(=O)N5CCCC5)ccc4F)ccn23)CCN1 [Compound 37, N-(4-Fluoro-3-(3-(3-oxopiperazin-1-yl)imidazo[1,2-a]pyrimidin-7-yl)phenyl)pyrrolidine-1-carboxamide]",,,1.1 mL/min/g,> 50.1 µM,,,> 50.1 µM,"EC50 (L. donovani amastigotes; THP-1, Table 6, at least three replicates, SD ≤0.4, read-out: INMAC pEC50 (converted)): > 50.1 µM; EC50 (THP-1 cells; THP-1, Table 6, read-out: THP-1 pEC50 (converted)): > 50.1 µM; solubility at 4 h ([1]; pH 6.5, Table 6): 815 µM; solubility ([1]; supplementary csv): 820 µM; Mouse CLi ([2]; Table 6): 1.1 mL/min/g"
"O=C(Nc1cccc(-c2cc3cc(-c4ccccc4)cnc3[nH]2)c1)N1CCCC1 [Compound 17, N-(3-(5-Phenyl-1H-pyrrolo[2,3-b]pyridin-2-yl)phenyl)pyrrolidine-1-carboxamide]",inactive,1.7 mL/min/g,1.7 mL/min/g,> 50.1 µM,,,> 50.1 µM,"EC50 (L. donovani amastigotes; THP-1, read-out: INMAC pEC50 (converted)): > 50.1 µM; EC50 (THP-1 cells; THP-1, read-out: THP-1 pEC50 (converted)): > 50.1 µM; solubility [3, 7]: 3 µM"
